{"source": "paper PMC7845594", "about": "“Novel Immune Modulators Enhance Caenorhabditis elegans Resistance to Multiple Pathogens” (mSphere, 2021)", "system": "C. elegans transcriptome", "experiment": "Transcriptome profiling (Affymetrix microarrays), differentially expressed genes", "type": "in vivo, Caenorhabditis elegans", "details": "downregulated genes", "procedure": "To gain additional insight into the effect of LK molecules on C. elegans, young-adult, wild-type worms were treated with each drug at 100 µM for 8 h in the absence of pathogen. RNA was collected, and transcriptome profiling was performed.\nData were determined using Affymetrix microarrays, as described in Materials and Methods. Download Table S3, XLSX file, 0.07 MB.\nTranscriptome profiling was performed on ∼6,000 wild-type, young adult worms incubated with either LK molecules or DMSO for 8 h. RNA isolation was performed using TRIzol extraction, followed by cleanup using RNeasy columns according to the manufacturer’s protocol. Each condition was analyzed in triplicate. Microarray data have been deposited in the GEO database, accession number GSE137516. […] Clustering and generation of the heat map was performed using Cluster 3.0 ([98]) and Treeview ([99]), respectively. Fold change of genes were normalized to average fold change of that gene over all clustered conditions. Genes and conditions were clustered using Euclidean distance and average linkages. […] Microarray data for non-LK molecules were collected from GEO omnibus. WormEXP was used as a secondary method for confirming statistical significance of potential pathways stimulated by each of the LK molecules ([100]). Gene ontologies were generated using DAVID ([101], [102])."}
{"molecule": "CCN(CC)/N=N/c1ccc(C(=O)O)cc1", "note": "[LK35]", "values": [{"measurement": "Fold Change", "setting": "Gene C29F4.2, Affy_ID 190884_at", "result": 0.3931}, {"measurement": "Fold Change", "setting": "Gene C32E8.7, Affy_ID 188220_at", "result": 0.2903}, {"measurement": "Fold Change", "setting": "Gene C33F10.9, Affy_ID 172834_x_at", "result": 0.1897}, {"measurement": "Fold Change", "setting": "Gene C34F11.3, Affy_ID 189114_at", "result": 0.4428}, {"measurement": "Fold Change", "setting": "Gene C34F11.4, Affy_ID 172885_x_at", "result": 0.1632}, {"measurement": "Fold Change", "setting": "Gene C34F11.6, Affy_ID 172896_x_at", "result": 0.1976}, {"measurement": "Fold Change", "setting": "Gene C35A5.6, Affy_ID 179396_at", "result": 0.1353}, {"measurement": "Fold Change", "setting": "Gene C35D10.11, Affy_ID 172630_x_at", "result": 0.1209}, {"measurement": "Fold Change", "setting": "Gene C44C8.6, Affy_ID 189233_s_at", "result": 0.3734}, {"measurement": "Fold Change", "setting": "Gene C49F5.1, Affy_ID 174812_at", "result": 0.237}, {"measurement": "Fold Change", "setting": "Gene C50F7.5, Affy_ID 183381_at", "result": 0.3778}, {"measurement": "Fold Change", "setting": "Gene CTEL54X.1, Affy_ID 185910_at", "result": 0.2757}, {"measurement": "Fold Change", "setting": "Gene D1086.2, Affy_ID 177478_at", "result": 0.1132}, {"measurement": "Fold Change", "setting": "Gene D1086.5, Affy_ID 177666_at", "result": 0.2318}, {"measurement": "Fold Change", "setting": "Gene D2024.7, Affy_ID 187178_s_at", "result": 0.4973}, {"measurement": "Fold Change", "setting": "Gene D2045.8, Affy_ID 191879_at", "result": 0.4257}, {"measurement": "Fold Change", "setting": "Gene D2089.3, Affy_ID 178891_at", "result": 0.3977}, {"measurement": "Fold Change", "setting": "Gene F02D8.4, Affy_ID 189325_at", "result": 0.3853}, {"measurement": "Fold Change", "setting": "Gene F07A11.5, Affy_ID 188623_at", "result": 0.4237}, {"measurement": "Fold Change", "setting": "Gene F08B6.4, Affy_ID 171924_x_at", "result": 0.4112}, {"measurement": "Fold Change", "setting": "Gene F08G2.1, Affy_ID 192280_s_at", "result": 0.181}, {"measurement": "Fold Change", "setting": "Gene F53A9.8, Affy_ID 180612_s_at", "result": 0.2385}, {"measurement": "Fold Change", "setting": "Gene F53F4.13, Affy_ID 182491_at", "result": 0.306}, {"measurement": "Fold Change", "setting": "Gene F54F11.2, Affy_ID 191753_at", "result": 0.2877}, {"measurement": "Fold Change", "setting": "Gene F55F3.2, Affy_ID 189534_at", "result": 0.2425}, {"measurement": "Fold Change", "setting": "Gene F55G1.3, Affy_ID 172702_x_at", "result": 0.3727}, {"measurement": "Fold Change", "setting": "Gene F58A4.7, Affy_ID 171841_x_at", "result": 0.2717}, {"measurement": "Fold Change", "setting": "Gene F58A6.8, Affy_ID 172889_x_at", "result": 0.1742}, {"measurement": "Fold Change", "setting": "Gene F58A6.9, Affy_ID 172743_x_at", "result": 0.2732}, {"measurement": "Fold Change", "setting": "Gene F58B3.1, Affy_ID 178236_s_at", "result": 0.3338}, {"measurement": "Fold Change", "setting": "Gene F58G1.4, Affy_ID 177978_at", "result": 0.2272}, {"measurement": "Fold Change", "setting": "Gene F59B2.5, Affy_ID 187071_at", "result": 0.4863}, {"measurement": "Fold Change", "setting": "Gene H02I12.6, Affy_ID 172891_x_at", "result": 0.4113}, {"measurement": "Fold Change", "setting": "Gene H12C20.3, Affy_ID 192782_at", "result": 0.1769}, {"measurement": "Fold Change", "setting": "Gene H12D21.1, Affy_ID 172431_x_at", "result": 0.176}, {"measurement": "Fold Change", "setting": "Gene H36L18.2, Affy_ID 179787_at", "result": 0.4486}, {"measurement": "Fold Change", "setting": "Gene K02C4.2, Affy_ID 178299_at", "result": 0.2893}, {"measurement": "Fold Change", "setting": "Gene K02D7.1, Affy_ID 189003_s_at", "result": 0.4157}, {"measurement": "Fold Change", "setting": "Gene K03H1.10, Affy_ID 179875_at", "result": 0.3898}, {"measurement": "Fold Change", "setting": "Gene K03H6.2, Affy_ID 183309_at", "result": 0.3456}, {"measurement": "Fold Change", "setting": "Gene K05F1.2, Affy_ID 172815_x_at", "result": 0.2488}, {"measurement": "Fold Change", "setting": "Gene K05F1.7, Affy_ID 172904_x_at", "result": 0.1812}, {"measurement": "Fold Change", "setting": "Gene K06C4.12, Affy_ID 172685_x_at", "result": 0.3916}, {"measurement": "Fold Change", "setting": "Gene K07E8.3, Affy_ID 180256_at", "result": 0.04574}, {"measurement": "Fold Change", "setting": "Gene K07F5.2, Affy_ID 172852_x_at", "result": 0.1696}, {"measurement": "Fold Change", "setting": "Gene K07F5.3, Affy_ID 172907_x_at", "result": 0.1824}, {"measurement": "Fold Change", "setting": "Gene K07F5.5, Affy_ID 172245_x_at", "result": 0.3189}, {"measurement": "Fold Change", "setting": "Gene K08F4.8, Affy_ID 172934_x_at", "result": 0.1666}, {"measurement": "Fold Change", "setting": "Gene K08F8.4, Affy_ID 193649_s_at", "result": 0.4028}, {"measurement": "Fold Change", "setting": "Gene K10F12.4, Affy_ID 185815_at", "result": 0.3079}, {"measurement": "Fold Change", "setting": "Gene M01D7.5, Affy_ID 173242_s_at", "result": 0.2324}, {"measurement": "Fold Change", "setting": "Gene M05D6.7, Affy_ID 193914_at", "result": 0.3025}, {"measurement": "Fold Change", "setting": "Gene M6.1, Affy_ID 193073_at", "result": 0.2608}, {"measurement": "Fold Change", "setting": "Gene M18.1, Affy_ID 173632_s_at", "result": 0.1786}, {"measurement": "Fold Change", "setting": "Gene M163.1, Affy_ID 177298_at", "result": 0.4161}, {"measurement": "Fold Change", "setting": "Gene R01E6.3, Affy_ID 189628_at", "result": 0.3449}, {"measurement": "Fold Change", "setting": "Gene R03E9.1, Affy_ID 193723_s_at", "result": 0.1079}, {"measurement": "Fold Change", "setting": "Gene R04B5.9, Affy_ID 191440_at", "result": 0.2481}, {"measurement": "Fold Change", "setting": "Gene R05F9.3, Affy_ID 172725_x_at", "result": 0.3857}, {"measurement": "Fold Change", "setting": "Gene R05F9.8, Affy_ID 172724_x_at", "result": 0.1853}, {"measurement": "Fold Change", "setting": "Gene R05G6.10, Affy_ID 192058_at", "result": 0.3689}, {"measurement": "Fold Change", "setting": "Gene R07B1.3, Affy_ID 190822_s_at", "result": 0.3753}, {"measurement": "Fold Change", "setting": "Gene R12C12.1, Affy_ID 190616_at", "result": 0.3455}, {"measurement": "Fold Change", "setting": "Gene R12E2.9, Affy_ID 180698_s_at", "result": 0.2329}, {"measurement": "Fold Change", "setting": "Gene R52.3, Affy_ID 177369_at", "result": 0.433}, {"measurement": "Fold Change", "setting": "Gene T01C3.4, Affy_ID 188106_at", "result": 0.01178}, {"measurement": "Fold Change", "setting": "Gene T01D3.6, Affy_ID 194060_s_at", "result": 0.3484}, {"measurement": "Fold Change", "setting": "Gene T02B11.3, Affy_ID 174051_s_at", "result": 0.4315}, {"measurement": "Fold Change", "setting": "Gene T03D8.2, Affy_ID 190280_at", "result": 0.4443}, {"measurement": "Fold Change", "setting": "Gene T07C4.4, Affy_ID 178149_s_at", "result": 0.4269}, {"measurement": "Fold Change", "setting": "Gene T07G12.5, Affy_ID 188496_s_at", "result": 0.1018}, {"measurement": "Fold Change", "setting": "Gene T08B1.6, Affy_ID 192296_at", "result": 0.1305}, {"measurement": "Fold Change", "setting": "Gene T08B2.12, Affy_ID 184685_s_at", "result": 0.1145}, {"measurement": "Fold Change", "setting": "Gene T09F5.9, Affy_ID 188947_at", "result": 0.2413}, {"measurement": "Fold Change", "setting": "Gene T15B7.9, Affy_ID 182858_at", "result": 0.3683}, {"measurement": "Fold Change", "setting": "Gene T19H5.4, Affy_ID 186755_s_at", "result": 0.3412}, {"measurement": "Fold Change", "setting": "Gene T20B3.2, Affy_ID 188278_s_at", "result": 0.3943}, {"measurement": "Fold Change", "setting": "Gene T20D4.11, Affy_ID 184438_at", "result": 0.05764}, {"measurement": "Fold Change", "setting": "Gene T20G5.7, Affy_ID 172218_x_at", "result": 0.3082}, {"measurement": "Fold Change", "setting": "Gene T22H2.6, Affy_ID 180962_s_at", "result": 0.3753}]}
